For orientation: Ki means the dissociation constant of the complex between target and ligand, obtained from inhibition or displacement.

Assay [1] concerns the target T1, glucocorticoid receptor (Homo sapiens, UniProt P04150).
T1 construct: containing 50-200 ug of A549 cell extract and 1.86 nM [^3H]-dexamethasone; host or cells: A549 human lung epithelial cells (sonicated cell extract)
T1 sequence (P04150 1-777): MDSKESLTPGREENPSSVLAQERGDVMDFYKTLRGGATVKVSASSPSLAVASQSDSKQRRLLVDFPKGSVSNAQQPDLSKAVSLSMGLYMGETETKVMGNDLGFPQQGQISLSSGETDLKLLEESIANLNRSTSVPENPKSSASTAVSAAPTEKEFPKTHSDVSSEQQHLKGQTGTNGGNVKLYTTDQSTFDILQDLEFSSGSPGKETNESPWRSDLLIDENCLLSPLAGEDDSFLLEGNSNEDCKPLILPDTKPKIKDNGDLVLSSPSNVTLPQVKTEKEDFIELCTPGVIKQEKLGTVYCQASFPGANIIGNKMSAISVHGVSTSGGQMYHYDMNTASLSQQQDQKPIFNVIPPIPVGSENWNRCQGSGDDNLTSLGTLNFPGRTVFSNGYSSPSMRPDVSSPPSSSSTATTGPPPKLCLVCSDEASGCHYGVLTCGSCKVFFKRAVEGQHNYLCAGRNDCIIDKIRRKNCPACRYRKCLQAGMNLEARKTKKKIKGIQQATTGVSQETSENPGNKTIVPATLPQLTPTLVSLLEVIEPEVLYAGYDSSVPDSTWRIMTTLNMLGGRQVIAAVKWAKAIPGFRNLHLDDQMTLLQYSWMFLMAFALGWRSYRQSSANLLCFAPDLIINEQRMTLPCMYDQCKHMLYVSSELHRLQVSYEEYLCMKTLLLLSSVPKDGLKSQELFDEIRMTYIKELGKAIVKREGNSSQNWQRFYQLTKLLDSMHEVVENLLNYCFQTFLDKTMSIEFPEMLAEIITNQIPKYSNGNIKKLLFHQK
Description: Glucocorticoid Receptor Binding Assay ([3H]-dexamethasone, A549 cell extract). Conditions: [3H]-dexamethasone binding, read-out: GR Ki. In a few lines: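 Displacement of [3H]-dexamethasone (1.86 nM) from glucocorticoid receptor in sonicated A549 lung epithelial cell extracts, 16 h at 4 °C, pH 7.2 molybdate-containing buffer. Bound radioactivity was scintillation-counted after charcoal/dextran stripping of free ligand.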

In assay [2] the target is T2, human MR (Homo sapiens, UniProt P08235).
T2 construct: The full length human MR gene is cloned from a human kidney or human brain cDNA library; His tag from the pAcHLT vector (own knowledge); made in house; host or cells: Sf9 insect cells (baculovirus, pAcHLT transfer vector)
T2 sequence (P08235 1-984): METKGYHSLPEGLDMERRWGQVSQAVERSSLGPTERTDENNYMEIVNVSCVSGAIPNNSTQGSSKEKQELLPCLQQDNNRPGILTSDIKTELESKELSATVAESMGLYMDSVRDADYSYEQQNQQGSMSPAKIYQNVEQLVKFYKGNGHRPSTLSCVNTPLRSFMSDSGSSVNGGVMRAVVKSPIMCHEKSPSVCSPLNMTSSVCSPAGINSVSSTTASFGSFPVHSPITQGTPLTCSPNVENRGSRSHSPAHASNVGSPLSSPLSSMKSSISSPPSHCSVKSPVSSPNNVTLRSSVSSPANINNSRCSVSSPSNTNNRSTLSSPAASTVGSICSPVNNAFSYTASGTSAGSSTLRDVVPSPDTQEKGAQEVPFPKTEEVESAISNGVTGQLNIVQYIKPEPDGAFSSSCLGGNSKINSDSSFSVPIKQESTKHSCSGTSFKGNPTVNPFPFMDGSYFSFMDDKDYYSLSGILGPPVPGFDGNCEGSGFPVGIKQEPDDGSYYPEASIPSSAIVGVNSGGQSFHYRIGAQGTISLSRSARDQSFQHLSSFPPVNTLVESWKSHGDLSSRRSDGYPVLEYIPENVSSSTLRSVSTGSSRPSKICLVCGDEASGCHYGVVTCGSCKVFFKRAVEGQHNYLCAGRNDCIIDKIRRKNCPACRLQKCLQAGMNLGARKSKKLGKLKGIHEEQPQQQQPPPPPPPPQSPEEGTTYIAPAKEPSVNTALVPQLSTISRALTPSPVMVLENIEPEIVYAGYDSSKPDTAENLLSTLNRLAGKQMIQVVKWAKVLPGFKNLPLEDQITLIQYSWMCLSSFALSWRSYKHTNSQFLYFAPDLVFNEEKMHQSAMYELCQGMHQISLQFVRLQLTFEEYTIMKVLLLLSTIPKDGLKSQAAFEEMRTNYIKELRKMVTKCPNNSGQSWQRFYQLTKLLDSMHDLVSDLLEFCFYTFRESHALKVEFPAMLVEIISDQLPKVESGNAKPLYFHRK
Briefly: Mineralocorticoid Receptor Binding Assay ([3H]-aldosterone). To be noted: [3H]-aldosterone binding, human MR expressed in Sf9 cells; read-out: MR Ki. In a few lines: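 Receptor source: freeze-thaw lysate of baculovirus-infected Sf9 cells carrying full-length human MR, 20-25 μg protein. Incubation ~16 h at 4 °C with shaking, pH 7.5 buffer containing 30 mM sodium molybdate and 10% glycerol.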

With `COC(=O)c1cccc(/C=C2\c3ccc(F)cc3CCc3ncccc32)c1` [Example 585], the Ki in assay [1] was less than 10000 nM; in assay [2] it was less than 500 nM.

Consider `COC(=O)c1cccc(/C=C2/c3ccc(F)cc3CCc3ncccc32)c1` [Example 586], for which the Ki is less than 10000 nM in assay [1] and less than 500 nM in assay [2].

As to `COC(=O)c1ccc(/C=C2/c3ccc(F)cc3CCc3ncccc32)cc1` [Example 587], the Ki is less than 10000 nM in assay [1] and less than 500 nM in assay [2].

Consider `COC(=O)c1ccccc1/C=C1\c2ccc(F)cc2CCc2ncccc21` [Example 588], for which the Ki in assay [1] and in assay [2] was less than 500 nM each time.

Turning to `COC(=O)c1ccccc1/C=C1/c2ccc(F)cc2CCc2ncccc21` [Example 589], the Ki in assay [1] and in assay [2] was less than 500 nM throughout.

In the case of `Fc1ccc2c(c1)CCc1ncccc1/C2=C/c1cccc(C(F)(F)F)c1` [Example 590], the Ki in assay [1] is less than 1000 nM; in assay [2], less than 500 nM.

As for `N#Cc1ccc2c(n1)CCc1cc(F)ccc1/C2=C\c1ccc2[nH]c(=O)[nH]c2c1` [Example 591], the figures for the Ki in assay [1] and in assay [2] were less than 10000 nM and less than 500 nM, respectively.

In the case of `CC(C)n1c(=O)[nH]c2cc(/C=C3\c4ccc(F)cc4CCc4ncccc43)ccc21` [Example 592], the values for the Ki in assay [1] and in assay [2] were less than 10000 nM and less than 500 nM, respectively.

In the case of `O=c1[nH]c2cc(/C=C3\c4ccc(F)cc4CCc4ncccc43)ccc2n1C1CC1` [Example 593], the Ki in assay [1] is less than 10000 nM; in assay [2] it was less than 500 nM.

For `CS(=O)(=O)Nc1cc(F)cc(/C=C2/c3ccc(F)cc3CCc3nc(C(F)F)ccc32)c1` [Example 594], the inhibition constant (Ki) in assay [1] and in assay [2] was less than 500 nM each time.

As to `CS(=O)(=O)Nc1cc(F)cc(/C=C2\c3ccc(F)cc3CCc3nc(C(F)F)ccc32)c1` [Example 595], the Ki in assay [1] and in assay [2] was less than 500 nM each time.

For the molecule `O=c1[nH]c2cc(/C=C3\c4ccc(F)cc4CCc4ncccc43)ccc2n1CCN1CCOCC1` [Example 596], the values for the Ki in assay [1] and in assay [2] were less than 10000 nM and less than 500 nM, respectively.

As to `CS(=O)(=O)Nc1cc(F)cc(/C=C2\c3ccc(F)cc3CCc3nc(CF)ccc32)c1` [Example 597], the Ki in assay [1] and in assay [2] was less than 500 nM throughout.

In the case of `CS(=O)(=O)Nc1cc(F)cc(/C=C2/c3ccc(F)cc3CCc3nc(CF)ccc32)c1` [Example 598], the Ki in assay [1] and in assay [2] was less than 500 nM in each case.

In the case of `CS(=O)(=O)Nc1cccc(C=C2c3ccccc3C3CC3c3ccccc32)c1` (stereo not drawn) [Example 602], the Ki in assay [1] and in assay [2] was less than 500 nM in each case.

Consider `Nc1cccc(C=C2c3ccccc3[C@H]3C[C@H]3c3ccccc32)c1` [Example 604], for which the Ki in assay [1] was less than 1000 nM; in assay [2], less than 500 nM.

Consider `O=c1[nH]c2cc(C=C3c4ccccc4C4CC4c4ccccc43)ccc2s1` (stereo not drawn) [Example 605], for which the Ki in assay [1] and in assay [2] was less than 500 nM each time.

Take `O=c1[nH]c2cc(C=C3c4ccccc4[C@H]4C[C@H]4c4ccccc43)ccc2o1` [Example 606]: the Ki in assay [1] and in assay [2] was less than 500 nM in each case.

For the molecule `O=c1[nH]c2cc(/C=C3\c4ccccc4COc4cc(F)ccc43)ccc2n1CCN1CCOCC1` [Example 607, 5-(3-Fluoro-6H-dibenzo[b,e]oxepin-11-ylidenemethyl)-1-(2-morpholin-4-yl-ethyl)-1,3-dihydro-benzoimidazol-2-one], the values for the Ki in assay [1] and in assay [2] were less than 1000 nM and less than 500 nM, respectively.

As to `O=c1[nH]c2cc(/C=C3\c4ccccc4COc4cc(F)ccc43)ccc2n1CCCN1CCOCC1` [Example 608, 5-(3-fluoro-6H-dibenzo[b,e]oxepin-11-ylidenemethyl)-1-(3-morpholin-4-yl-propyl)-1,3-dihydro-benzoimidazol-2-one], the Ki in assay [1] is less than 10000 nM; in assay [2] it was less than 500 nM.

As to `O=c1[nH]c2cc(/C=C3\c4ccccc4COc4cc(F)ccc43)ccc2n1C1CC1` [Example 609, 1-cyclopropyl-5-(3-fluoro-6H-dibenzo[b,e]oxepin-11-ylidenemethyl)-1,3-dihydro-benzoimidazol-2-one], the Ki in assay [1] was less than 1000 nM; in assay [2] it was less than 500 nM.

As to `CC(C)n1c(=O)[nH]c2cc(/C=C3\c4ccccc4COc4cc(F)ccc43)ccc21` [Example 612, 5-(3-Fluoro-6H-dibenzo[b,e]oxepin-11-ylidenemethyl)-1-isopropyl-1,3-dihydro-benzoimidazol-2-one], the Ki in assay [1] was less than 10000 nM; in assay [2] it was less than 500 nM.

With `O=c1[nH]c2ccc(/C=C3\c4ccc(F)cc4COc4cc(F)ccc43)cc2[nH]1` [Example 613, 5-(3,8-Difluoro-6H-dibenzo[b,e]oxepin-11-ylidenemethyl)-1,3-dihydro-benzoimidazol-2-one], the Ki in assay [1] and in assay [2] was less than 500 nM in each case.

For the molecule `O=c1[nH]c2ccc(/C=C3\c4ccccc4COc4cc(Cl)ccc43)cc2[nH]1` [Example 614, 5-(3-Chloro-6H-dibenzo[b,e]oxepin-11-ylidenemethyl)-1,3-dihydro-benzoimidazol-2-one], the Ki was less than 1000 nM in assay [1] and less than 500 nM in assay [2].

Take `O=c1[nH]c2cc(/C=C3\c4ccc(F)cc4COc4cc(F)ccc43)ccc2n1CCN1CCOCC1` [Example 617, 5-(3,8-Difluoro-6H-dibenzo[b,e]oxepin-11-ylidenemethyl)-1-(2-morpholin-4-yl-ethyl)-1,3-dihydro-benzoimidazol-2-one]: the Ki in assay [1] and in assay [2] was less than 500 nM in each case.

`O=c1[nH]c2cc(/C=C3/c4ccccc4COc4ccccc43)ccc2o1` [Example 619]: the Ki in assay [1] and in assay [2] was less than 500 nM throughout.

As for `O=c1[nH]c2cc(/C=C3\c4ccccc4COc4ccccc43)ccc2o1` [Example 620], the Ki in assay [1] and in assay [2] was less than 500 nM throughout.

`CS(=O)(=O)Nc1cccc(/C=C2/c3ccccc3OCc3c(Cl)cccc32)c1` [Example 622]: the Ki in assay [1] is less than 10000 nM; in assay [2], less than 500 nM.

Consider `CS(=O)(=O)Nc1cc(F)cc(/C=C2\c3ccc(Cl)cc3COc3ccccc32)c1` [Example 623], for which the Ki in assay [1] and in assay [2] was less than 500 nM each time.

With `CS(=O)(=O)Nc1cc(F)cc(/C=C2/c3ccc(Cl)cc3COc3ccccc32)c1` [Example 624], the Ki in assay [1] and in assay [2] was less than 500 nM throughout.

For `O=c1[nH]c2ccc(C=C3c4ccccc4COc4ccccc43)cc2[nH]1` [Example 626], the Ki in assay [1] is less than 10000 nM; in assay [2], less than 500 nM.

For the molecule `Oc1cccc(/C=C2/c3ccccc3COc3cc(F)ccc32)c1` [Example 627], the Ki in assay [1] and in assay [2] was less than 500 nM throughout.

As to `Oc1cccc(/C=C2\c3ccccc3COc3cc(F)ccc32)c1` [Example 628], the inhibition constant Ki in assay [1] and in assay [2] was less than 500 nM in each case.

Source of the values: patent publication US20060063759A1, “Tricyclic steroid hormone nuclear receptor modulators” (priority 2002, published 2006).
